Assay results: US8168632B2, “Bicyclic amide derivatives for the treatment of respiratory disorders” (Cortex Pharmaceuticals, Inc., priority 2007, dated 2012)

Tested on: AMPA receptor
Assay: In vivo electrophysiology (field EPSP in dentate gyrus of anesthetized animals)
Settings: 10 mpk i.p., perforant path stimulation
Description: The electrophysiological effects of the invention compounds were tested in vivo in anesthetized animals according to the following procedures. Animals are maintained under anesthesia by phenobarbital administered using a Hamilton syringe pump. Stimulating and recording electrodes are inserted into the perforant path and dentate gyrus of the hippocampus, respectively. Once electrodes are implanted, a stable baseline of evoked responses are elicited using single monophasic pulses (100 μs pulse duration) delivered at 3/min to the stimulating electrode. Field EPSPs are monitored until a stable baseline is achieved (about 20-30 min), after which a solution of test compound is injected intraperitoneally and evoked field potentials are recorded. Evoked potentials were recorded for approximately 2 h following drug administration or until the amplitude of the field EPSP returns to baseline. In the latter instance, it is common that an iv administration is also carried out with an appropriate dose of the same test compound. Invention compounds were assayed in the in vivo electrophysiology assay described above and data for representative test compounds is shown in the Table.
The electrophysiological effects of invention compounds were tested in vivo in anesthetized animals according to the following procedures.
Animals are maintained under anesthesia by phenobarbital administered using a Hamilton syringe pump. Stimulating and recording electrodes are inserted into the perforant path and dentate gyrus of the hippocampus, respectively. Once electrodes are implanted, a stable baseline of evoked responses are elicited using single monophasic pulses (100 μs pulse duration) delivered at 3/min to the stimulating electrode. Field EPSPs are monitored until a stable baseline is achieved (about 20-30 min), after which a solution of test compound is injected intraperitoneally and evoked field potentials are recorded. Evoked potentials are recorded for approximately 2 h following drug administration or until the amplitude of the field EPSP returns to baseline. […]

Compound	In vivo Electrophysiology: % increase in the amplitude of the field EPSP in the dentate gyrus of rat
O=C(c1ccc2nonc2c1)N1C2CCC1COC2 [Example 1, [2,1,3]-Benzoxadiazol-5-yl(3-oxa-8-azabicyclo[3.2.1]oct-8-yl)methanone]	17%
O=C(c1ccc2nonc2c1)N1C2CCCC1COC2 [Example 2, [2,1,3]-Benzoxadiazol-5-yl(3-oxa-9-azabicyclo[3.3.1]non-9-yl)methanone]	16%
O=C(c1ccc2nonc2c1)N1C2COCC1COC2 [Example 3, [2,1,3]-Benzoxadiazol-5-yl(3,7-dioxa-9-azabicyclo[3.3.1]non-9-yl)methanone]	15%
